Laboratory results as given in PubChem BioAssay AID248 (DTP/NCI, 2004).
Values joined by “and” are separate entries in the source; they are usually repeats but may differ in a detail not shown here. Equal entries are not always repeated. Toxic doses and inconclusive results are not listed.

Test system: L1210 leukemia ip in BDF1 mice, survival T/C
Test: NCI In Vivo Anticancer Drug Screen. Data for tumor model L1210 Leukemia (intraperitoneal) in B6D2F1 (BDF1) mice
Conditions: endpoint: mean survival time, higher = longer survival
Summary of the method: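 In this screen, tumor-bearing mice given compound are compared to those given vehicle, and their survival values are reported as a treated-to-control quotient.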

[1] = dose: 50.0 mg/kg/injection, schedule: Q01DX009 (ip), vehicle: saline with Tween-80
[2] = dose: 100.0 mg/kg/injection, schedule: Q01DX009 (ip), vehicle: saline with Tween-80
[3] = dose: 100.0 mg/kg/injection, schedule: Q04DX003 (ip), vehicle: saline with Tween-80
[4] = dose: 200.0 mg/kg/injection, schedule: Q04DX003 (ip), vehicle: saline with Tween-80
[5] = dose: 100.0 mg/kg/injection, schedule: Q01DX001 (ip), vehicle: saline

Nc1nc(N)c2c(Cl)c(CNc3ccc(Cl)c(Cl)c3)ccc2n1
T/C (dose: 6.25 mg/kg/injection, schedule: Q01DX009 (ip), vehicle: water): 124 % of control | T/C (dose: 12.5 mg/kg/injection, schedule: Q01DX009 (ip), vehicle: saline with Tween-80): 158 % of control | T/C [1]: 119 % of control | T/C (dose: 50.0 mg/kg/injection, schedule: Q01DX009 (ip), vehicle: water): 93 % of control and 110 % of control | T/C (dose: 50.0 mg/kg/injection, schedule: Q04DX003 (ip), vehicle: water): 107 % of control | T/C [2]: 91 % of control | T/C (dose: 100.0 mg/kg/injection, schedule: Q01DX009 (ip), vehicle: water): 86 % of control | T/C (dose: 100.0 mg/kg/injection, schedule: Q04DX003 (ip), vehicle: water): 124 % of control | T/C (dose: 400.0 mg/kg/injection, schedule: Q04DX003 (ip), vehicle: water): 113 % of control | T/C (dose: 600.0 mg/kg/injection, schedule: Q04DX003 (ip), vehicle: water): 97 % of control

CC(=O)OCC(OC(C)=O)C(OC(C)=O)C(COC(C)=O)OC(C)=O (centres undefined)
T/C (dose: 25.6 mg/kg/injection, schedule: Q04DX002 (ip), vehicle: saline with Tween-80): 108 % of control | T/C (dose: 64.0 mg/kg/injection, schedule: Q04DX002 (ip), vehicle: saline with Tween-80): 104 % of control | T/C (dose: 160.0 mg/kg/injection, schedule: Q04DX002 (ip), vehicle: saline with Tween-80): 93 % of control | T/C (dose: 400.0 mg/kg/injection, schedule: Q04DX002 (ip), vehicle: saline with Tween-80): 93 % of control

CS(=O)(=O)OCCN=C(N)N[N+](=O)[O-]
T/C (dose: 20.0 mg/kg/injection, schedule: Q04DX003 (ip), vehicle: Klucel (hydroxypropylcellulose) (HPC)): 95 % of control | T/C (dose: 40.0 mg/kg/injection, schedule: Q04DX003 (ip), vehicle: Klucel (hydroxypropylcellulose) (HPC)): 95 % of control | T/C (dose: 80.0 mg/kg/injection, schedule: Q04DX003 (ip), vehicle: Klucel (hydroxypropylcellulose) (HPC)): 97 % of control | T/C (dose: 100.0 mg/kg/injection, schedule: Q04DX003 (ip), vehicle: Klucel (hydroxypropylcellulose) (HPC)): 105 % of control

CCCCNC(=O)C(F)(F)F
T/C (dose: 100.0 mg/kg/injection, schedule: Q01DX001 (ip), vehicle: other): 100 % of control | T/C (dose: 200.0 mg/kg/injection, schedule: Q01DX001 (ip), vehicle: other): 98 % of control | T/C (dose: 400.0 mg/kg/injection, schedule: Q01DX001 (ip), vehicle: other): 98 % of control

COc1ccc(O)c2c1C(=O)c1ccccc1C2=O
T/C (dose: 25.0 mg/kg/injection, schedule: Q01DX009 (ip), vehicle: other): 93 % of control | T/C (dose: 50.0 mg/kg/injection, schedule: Q01DX009 (ip), vehicle: other): 95 % of control | T/C (dose: 100.0 mg/kg/injection, schedule: Q01DX009 (ip), vehicle: other): 104 % of control | T/C (dose: 200.0 mg/kg/injection, schedule: Q01DX009 (ip), vehicle: other): 102 % of control | T/C (dose: 400.0 mg/kg/injection, schedule: Q01DX009 (ip), vehicle: other): 104 % of control

CC1CC/C(=C\c2ccccc2)C(=O)/C1=C/c1ccccc1 (centres undefined)
T/C (dose: 25.0 mg/kg/injection, schedule: Q01DX009 (ip), vehicle: DMSO): 92 % of control | T/C (dose: 50.0 mg/kg/injection, schedule: Q01DX009 (ip), vehicle: DMSO): 94 % of control | T/C (dose: 100.0 mg/kg/injection, schedule: Q01DX009 (ip), vehicle: DMSO): 94 % of control and 91 % of control | T/C (dose: 100.0 mg/kg/injection, schedule: Q04DX003 (ip), vehicle: DMSO): 105 % of control | T/C (dose: 200.0 mg/kg/injection, schedule: Q01DX009 (ip), vehicle: DMSO): 102 % of control | T/C (dose: 200.0 mg/kg/injection, schedule: Q04DX003 (ip), vehicle: DMSO): 100 % of control | T/C (dose: 400.0 mg/kg/injection, schedule: Q04DX003 (ip), vehicle: DMSO): 95 % of control

O=C(C[n+]1ccccc1)N/N=C/c1ccc(O)c(O)c1
T/C [1]: 104 % of control | T/C [2]: 106 % of control | T/C [3]: 110 % of control | T/C (dose: 200.0 mg/kg/injection, schedule: Q01DX009 (ip), vehicle: saline with Tween-80): 117 % of control | T/C [4]: 110 % of control

c1ccc(CCCn2cnc3cnccc32)cc1
T/C (dose: 5.0 mg/kg/injection, schedule: Q01DX001 (ip), vehicle: saline): 100 % of control | T/C (dose: 10.0 mg/kg/injection, schedule: Q01DX001 (ip), vehicle: saline): 103 % of control | T/C (dose: 20.0 mg/kg/injection, schedule: Q01DX001 (ip), vehicle: saline): 105 % of control | T/C (dose: 40.0 mg/kg/injection, schedule: Q01DX001 (ip), vehicle: saline): 100 % of control | T/C [5]: 96 % of control

COc1ccccc1OC(=O)Nc1ccc(C)c([N+](=O)[O-])c1
T/C (dose: 25.0 mg/kg/injection, schedule: Q01DX009 (ip), vehicle: saline with Tween-80): 95 % of control | T/C [1]: 118 % of control | T/C [2]: 92 % of control

O=[N+]([O-])c1ccc(-c2cc3ccccc3nc2Cl)cc1
T/C [5]: 92 % of control | T/C (dose: 200.0 mg/kg/injection, schedule: Q01DX001 (ip), vehicle: saline): 90 % of control | T/C (dose: 400.0 mg/kg/injection, schedule: Q01DX001 (ip), vehicle: saline): 101 % of control

Cc1c(N)nc(C(CC(N)=O)NCC(N)C(N)=O)nc1C(=O)NC(C(=O)NC(C)C(O)C(C)C(=O)NC(C(=O)NCCc1nc(-c2nc(C(=O)NCCC[S+](C)C)cs2)cs1)C(C)O)C(OC1OC(CO)C(O)C(O)C1OC1OC(CO)C(O)C(OC(N)=O)C1O)c1cnc[nH]1 (centres undefined)
T/C (dose: 1.0 mg/kg/injection, schedule: Q01DX009 (ip), vehicle: Klucel (hydroxypropylcellulose) (HPC)): 106 % of control | T/C (dose: 2.0 mg/kg/injection, schedule: Q01DX009 (ip), vehicle: Klucel (hydroxypropylcellulose) (HPC)): 95 % of control | T/C (dose: 4.0 mg/kg/injection, schedule: Q01DX009 (ip), vehicle: Klucel (hydroxypropylcellulose) (HPC)): 107 % of control | T/C (dose: 8.0 mg/kg/injection, schedule: Q01DX009 (ip), vehicle: Klucel (hydroxypropylcellulose) (HPC)): 101 % of control

CN(CCc1ccccc1)/N=N/c1nc[nH]c1C(N)=O
T/C (dose: 100.0 mg/kg/injection, schedule: Q01DX001 (ip), vehicle: saline with Tween-80): 96 % of control | T/C (dose: 100.0 mg/kg/injection, schedule: Q01DX009 (ip), vehicle: Klucel (hydroxypropylcellulose) (HPC)): 102 % of control | T/C [3]: 110 % of control | T/C (dose: 118.0 mg/kg/injection, schedule: Q04DX003 (ip), vehicle: saline with Tween-80): 101 % of control | T/C (dose: 150.0 mg/kg/injection, schedule: Q01DX009 (ip), vehicle: saline with Tween-80): 155 % of control | T/C (dose: 177.0 mg/kg/injection, schedule: Q04DX003 (ip), vehicle: saline with Tween-80): 115 % of control | T/C (dose: 200.0 mg/kg/injection, schedule: Q01DX001 (ip), vehicle: saline with Tween-80): 104 % of control | T/C (dose: 200.0 mg/kg/injection, schedule: Q01DX009 (ip), vehicle: Klucel (hydroxypropylcellulose) (HPC)): 103 % of control | T/C [4]: 112 % of control | T/C (dose: 300.0 mg/kg/injection, schedule: Q01DX009 (ip), vehicle: saline with Tween-80): 163 % of control | T/C (dose: 400.0 mg/kg/injection, schedule: Q01DX001 (ip), vehicle: saline with Tween-80): 118 % of control | T/C (dose: 400.0 mg/kg/injection, schedule: Q01DX009 (ip), vehicle: Klucel (hydroxypropylcellulose) (HPC)): 113 % of control | T/C (dose: 400.0 mg/kg/injection, schedule: Q04DX003 (ip), vehicle: saline with Tween-80): 150 % of control | T/C (dose: 600.0 mg/kg/injection, schedule: Q04DX003 (ip), vehicle: saline with Tween-80): 179 % of control

CC(=O)CC(=O)CF.CC(=O)CC(=O)CF.[Cu]
T/C (dose: 12.0 mg/kg/injection, schedule: Q01DX001 (ip), vehicle: saline): 90 % of control | T/C (dose: 25.0 mg/kg/injection, schedule: Q01DX001 (ip), vehicle: saline): 107 % of control

CC1COC(C(F)(F)Cl)(C(F)(F)Cl)O1 (centres undefined)
T/C (dose: 100.0 mg/kg/injection, schedule: Q01DX009 (ip), vehicle: saline): 93 % of control and 97 % of control | T/C (dose: 100.0 mg/kg/injection, schedule: Q04DX002 (ip), vehicle: saline): 96 % of control and 101 % of control | T/C (dose: 200.0 mg/kg/injection, schedule: Q01DX009 (ip), vehicle: saline): 94 % of control and 92 % of control | T/C (dose: 200.0 mg/kg/injection, schedule: Q04DX002 (ip), vehicle: saline): 96 % of control and 103 % of control | T/C (dose: 400.0 mg/kg/injection, schedule: Q01DX009 (ip), vehicle: saline): 93 % of control and 105 % of control | T/C (dose: 400.0 mg/kg/injection, schedule: Q04DX002 (ip), vehicle: saline): 100 % of control and 105 % of control

O=C(CC(O)(C(F)(F)F)C(F)(F)F)c1ccc(Cl)c([N+](=O)[O-])c1
T/C (dose: 75.0 mg/kg/injection, schedule: Q01DX009 (ip), vehicle: Klucel (hydroxypropylcellulose) (HPC)): 102 % of control | T/C (dose: 150.0 mg/kg/injection, schedule: Q01DX009 (ip), vehicle: Klucel (hydroxypropylcellulose) (HPC)): 100 % of control

COc1ccc(CC(C)=O)cc1
T/C (dose: 50.0 mg/kg/injection, schedule: Q04DX003 (ip), vehicle: saline): 96 % of control | T/C (dose: 100.0 mg/kg/injection, schedule: Q04DX003 (ip), vehicle: saline): 105 % of control
